For seven compounds, Activity results are on record in ChEMBL document CHEMBL2203181, “Microwave-assisted synthesis, molecular docking and antitubercular activity of 1,2,3,4-tetrahydropyrimidine-5-carbonitrile derivatives” (2012).

What all share (assay type): functional
Common to all, as to set-up: scale not given: the % may be the effect or the level left

The test system of test [1] is Mycobacterium tuberculosis. Kind of test: Antitubercular activity against Mycobacterium tuberculosis H37Rv assessed as reduction in RLU at 100 ug/mL after 72 hrs by luciferase reporter phage assay. A general note: A reporter such as luciferase makes a cellular process visible.
Test [2] has as its system Mycobacterium tuberculosis. In words: Antitubercular activity against Mycobacterium tuberculosis H37Rv assessed as reduction in RLU at 500 ug/mL after 72 hrs by luciferase reporter phage assay.
The subject of test [3] is Mycobacterium tuberculosis. In words: Antitubercular activity against Mycobacterium tuberculosis H37Rv assessed as reduction in RLU at 0.5 ug/mL after 72 hrs by luciferase reporter phage assay.
Test [4] has as its system Mycobacterium tuberculosis. In words: Antitubercular activity against Mycobacterium tuberculosis H37Rv assessed as reduction in RLU at 2 ug/mL after 72 hrs by luciferase reporter phage assay.

As for `N#Cc1c(-c2ccc(F)cc2)[nH]c(=O)[nH]c1=O`, the Activity in test [1] is listed as 46.49%; in test [2], 44.2%.

On to `N#Cc1c(-c2cccc(Cl)c2)[nH]c(=O)[nH]c1=O`, for which the Activity in test [1] came to 54.28%; in test [2], 61.02%.

Consider `COc1ccc(-c2[nH]c(=O)[nH]c(=O)c2C#N)cc1O`, for which the results for the Activity in test [1] and in test [2] were 33.4% and 48.72%, respectively.

Consider `N#Cc1c(-c2ccc(Cl)cc2)[nH]c(=S)[nH]c1=O`, for which the Activity in test [1] is on record as 46.21%; in test [2] it was 65.23%.

As to `N#Cc1c(-c2ccc(Br)cc2)[nH]c(=S)[nH]c1=O`, the Activity in test [1] stood at 75.73%; in test [2] it was 82.04%. On to `NNC(=O)c1ccncc1` [ISONIAZID], for which the Activity in test [3] was found to be 98.42%. Take `CO[C@H]1/C=C/O[C@@]2(C)Oc3c(C)c(O)c4c(O)c(c(/C=N/N5CCN(C)CC5)c(O)c4c3C2=O)NC(=O)/C(C)=C\C=C\[C@H](C)[C@H](O)[C@@H](C)[C@@H](O)[C@@H](C)[C@H](OC(C)=O)[C@@H]1C` [RIFAMPIN]: the Activity in test [4] is on record as 82.58%.
